Results on 23 compounds are retold here after the supplement of paper PMC6723410.

Test [1] concerns GUMC-403. Kind of test: AC50 for reduction of cell viability; higher = less potent. Particulars: library / dose series: MIPE library, 11-point 1:3 dilution; 48 h.
Test [2] deals with GUMC-403. Put plainly: viability at highest tested concentration (max response) relative to DMSO (% of DMSO control); higher = less cytotoxic. Particulars: library / dose series: MIPE library, 11-point 1:3 dilution, 48 h. An outline of the steps: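 Patient-derived GUMC-403 papilloma cells grown by conditional reprogramming were plated at 700/well in 5 μL F + Y medium in 1536-well plates and incubated overnight at 37 °C. They then received 23 nL of MIPE 4.0 compounds by pin tool (11-point 1:3 series) for 48 h. CellTiter-Glo luminescence was read on a ViewLux and normalised with DMSO wells as 100% and empty wells as 0%. The value is viability at the highest tested concentration relative to DMSO control.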

In the case of `C[C@H](NCc1ccc2c(c1)nc(NC(=O)c1ccc(-c3cn[nH]c3)s1)n2CCc1ccccc1)C(C)(C)C`, the “AC50 for reduction of cell viability” value in the test on GUMC-403 [1] worked out at 3.72 µM. The compound further came in with a viability in the test on GUMC-403 [2] (top concentration 46.1 µM) of 8.07.

Consider `CC[C@@H]1[C@@H](C)O[C@@](O)([C@@H](C)[C@H](O)[C@H](C)[C@H]2OC(=O)/C=C/C=C/[C@H](C)[C@@H]([C@@H](C)[C@@H](O)[C@H](C)[C@@]3(O)C[C@@H](O[C@H]4C[C@H](O)[C@H](O)[C@H](C)O4)[C@H](CC)[C@@H](C)O3)OC(=O)/C=C/C=C/[C@@H]2C)C[C@H]1O[C@H]1C[C@H](O)[C@H](O)[C@H](C)O1`, for which the “AC50 for reduction of cell viability” value with GUMC-403 [1] is 26.4 µM. For the same compound, in the test on GUMC-403 [2] (top concentration 46.1 µM), the viability turned out to be 8.03.

With `CCN(CC)CCNC(=O)c1c(C)[nH]c(/C=C2\C(=O)Nc3ccc(F)cc32)c1C`, the “AC50 for reduction of cell viability” value with GUMC-403 [1] was determined as 42.9 µM. For the same compound, the viability in the test on GUMC-403 [2] (top concentration 92.2 µM) came out at 5.58.

On to `CC#C[C@]1(O)CC[C@H]2[C@@H]/3CCC/4=C/C(=O)CCC4=C3[C@H](C[C@]12C)C5=CC=C(C=C5)N(C)C`, for which the “AC50 for reduction of cell viability” value in the test with GUMC-403 [1] stood at 0.833 µM. Also, the viability in the test with GUMC-403 [2] (top concentration 46.1 µM) amounted to 59.

Take `C[C@H]1CCC/C=C/C2C[C@H](O)C[C@H]2[C@H](O)/C=C/C(=O)O1` (stereo partly specified): the “AC50 for reduction of cell viability” value in the test on GUMC-403 [1] turned out to be 0.0105 µM. The compound also displayed a viability in the test on GUMC-403 [2] (top concentration 46.1 µM) of 31.1.

For the compound `COc1cccc2c1C(=O)c1c(O)c3c(c(O)c1C2=O)C[C@@](O)(C(C)=O)C[C@@H]3O[C@H]1C[C@H](N)[C@H](O)[C@H](C)O1`, the “AC50 for reduction of cell viability” value with GUMC-403 [1] came out at 0.372 µM. In addition, the viability in the test with GUMC-403 [2] (top concentration 46.1 µM) turned out to be 33.5.

For `CC(C)c1cc(C(=O)N2Cc3ccc(CN4CCN(C)CC4)cc3C2)c(O)cc1O`, the “AC50 for reduction of cell viability” value in the test with GUMC-403 [1] turned out to be 0.833 µM. The compound further registered a viability in the test on GUMC-403 [2] (top concentration 46.1 µM) of 75.9.

Turning to `CC[C@@H]1C(=O)N(C)c2cnc(Nc3ccc(C(=O)NC4CCC(N5CCN(CC6CC6)CC5)CC4)cc3OC)nc2N1C(C)C` (stereo partly specified), the “AC50 for reduction of cell viability” value in the test with GUMC-403 [1] was determined as 20.9 µM. The viability in the test with GUMC-403 [2] (top concentration 46.1 µM) stood at 6.26.

For the compound `CC1(C)OC/2=C(\[C@H](NCC3=CC=CC=C3)[C@@H]1O)C(=O)C4=CC=CC=C4C2=O`, the “AC50 for reduction of cell viability” value with GUMC-403 [1] came out at 7.43 µM. The compound also had a viability in the test with GUMC-403 [2] (top concentration 46.1 µM) of 5.84.

As to `Cc1nc(N)ncc1-c1nc(N2CCOCC2)c2sc(C(C)(C)O)cc2n1`, the “AC50 for reduction of cell viability” value in the test on GUMC-403 [1] turned out to be 0.332 µM. The same compound registered a viability with GUMC-403 [2] (top concentration 46.1 µM) of 45.7.

Take `CN(c1ncccc1CNc1nc(Nc2ccc3c(c2)CC(=O)N3)ncc1C(F)(F)F)[S+](C)(=O)[O-]`: the “AC50 for reduction of cell viability” value with GUMC-403 [1] is 7.43 µM. The compound further showed a viability in the test on GUMC-403 [2] (top concentration 46.1 µM) of 28.

Regarding `C=CCNc1c(O)cc2c(O)c1C[C@@H](C)C[C@H](OC)[C@H](O)[C@@H](C)/C=C(/C)[C@H](OC(N)=O)[C@@H](OC)/C=C\C=C(\C)C(=O)N2`, the “AC50 for reduction of cell viability” value in the test on GUMC-403 [1] is 4.69 µM. In the test with GUMC-403 [2] (top concentration 46.1 µM), this compound returned a viability of 68.9.

Take `C[C@H]([C@H]1C\C(=C(CO)/C(=O)O1)C)[C@H]2CC[C@H]3[C@@H]4C[C@H]5O[C@]56[C@@H](O)\C=C/C(=O)[C@]6(C)[C@H]4CC[C@]23C`: the “AC50 for reduction of cell viability” value in the test on GUMC-403 [1] was found to be 14.8 µM. Also, the viability with GUMC-403 [2] (top concentration 46.1 µM) turned out to be 5.02.

`CCC[S+](=O)([O-])Nc1ccc(F)c(C(=O)c2c[nH]c3ncc(-c4ccc(Cl)cc4)cc23)c1F`: in the test with GUMC-403 [1], the “AC50 for reduction of cell viability” value stood at 5.9 µM. Also, in the test with GUMC-403 [2] (top concentration 46.1 µM), the viability was 54.9.

For `CC(C)C1=N[N](C\2=C1C(=O)N\C(=N2)CC3=CC=C(OCCO)C=C3)C4=C(Cl)C=CC=C4Cl`, the “AC50 for reduction of cell viability” value with GUMC-403 [1] amounted to 0.132 µM. The compound also had a viability in the test on GUMC-403 [2] (top concentration 46.1 µM) of 47.9.

As for `O=C(Nc1c[nH]nc1-c1nc2cc(CN3CCOCC3)ccc2[nH]1)NC1CC1`, the “AC50 for reduction of cell viability” value with GUMC-403 [1] came out at 6.62 µM. In the test on GUMC-403 [2] (top concentration 46.1 µM), this compound registered a viability of 8.38.

Take `O=C1NC(=O)/C(=C/c2ccc3nccc(-c4ccncc4)c3c2)S1`: the “AC50 for reduction of cell viability” value in the test with GUMC-403 [1] is 0.235 µM. This compound also registered a viability with GUMC-403 [2] (top concentration 46.1 µM) of 18.7.

As for `CCc1cnn2c(NCc3ccc[n+]([O-])c3)cc(N3CCCC[C@H]3CCO)nc12`, the “AC50 for reduction of cell viability” value in the test with GUMC-403 [1] came to 0.0469 µM. In the test on GUMC-403 [2] (top concentration 46.1 µM), the viability was found to be 62.2.

As to `CN1\N=C(N)/C2=C[N]([C@@H]3O[C@H](CO[P](O)(O)=O)[C@@H](O)[C@H]3O)C4=C2C1=NC=N4`, the “AC50 for reduction of cell viability” value in the test on GUMC-403 [1] was 1.48 µM. Moreover, in the test with GUMC-403 [2] (top concentration 46.1 µM), the viability came out at 57.8.

Take `CC(=O)NCC(=O)N1[C@@H]2CC[C@H]1c1ccc(Nc3ncc(C(F)(F)F)c(NC4CCC4)n3)cc12`: the “AC50 for reduction of cell viability” value in the test with GUMC-403 [1] turned out to be 18.7 µM. In the test with GUMC-403 [2] (top concentration 46.1 µM), the viability was 4.61.

Take `CCn1nnc2c(N3CCOCC3)nc(-c3ccc(NC(=O)Nc4ccc(C(=O)N5CCN(C)CC5)cc4)cc3)nc21`: the “AC50 for reduction of cell viability” value with GUMC-403 [1] is 0.00935 µM. This compound also had a viability with GUMC-403 [2] (top concentration 46.1 µM) of 54.4.

As to `CCN1CCN(CC1)CC(=O)NC2=CC=C(C3=C2C4=C(S3)C=CC=C4)C5=C6O\C(=C/C(=O)C6=CC=C5)N7CCOCC7`, the “AC50 for reduction of cell viability” value with GUMC-403 [1] was determined as 2.96 µM. For the same compound, the viability with GUMC-403 [2] (top concentration 46.1 µM) is 58.7.

As for `COc1ccc(F)c(F)c1C(=O)c1cnc(NC2CCN([S+](C)(=O)[O-])CC2)nc1N`, in the test on GUMC-403 [1], the “AC50 for reduction of cell viability” value is 4.69 µM. The compound further displayed a viability in the test on GUMC-403 [2] (top concentration 46.1 µM) of 55.6.
